The series concerns Spontaneously Hypertensive Rats. Briefly: Test 1: antihypertensive effects (systolic tail artery blood pressure) and heart rate in spontaneously hypertensive rats, oral. The series is classed as in vivo, rat (male, SHR). As to conditions: for change in vivo at 1 mg/kg / change in vivo at 10 mg/kg: Rattus norvegicus; for Change (%) in heart rate: maximum value. The method, boiled down: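 Male SHRs aged 20 weeks or older (350-430 g), with systolic pressure of 180 mmHg or higher, were used in groups of 3-4. Compounds in 0.5% methylcellulose were given orally, mostly at 1 mg/Kg. Systolic tail-artery blood pressure and heart rate were measured together as percent change.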

Where [1] appears, read: SHR, oral 1 mg/Kg, 1 hour, read-out: Antihypertensive effects, change (%) in blood pressure, 1 hour later.
[2] abbreviates: SHR, oral 1 mg/Kg, 3 hours, read-out: Antihypertensive effects, change (%) in blood pressure, 3 hours later.
Setting [3] is: SHR, oral 1 mg/Kg, 6 hours, read-out: Antihypertensive effects, change (%) in blood pressure, 6 hours later.
[4] abbreviates: SHR, oral 1 mg/Kg, 24 hours, read-out: Antihypertensive effects, change (%) in blood pressure, 24 hours later.

Where two headings read alike, the source gives them in different places.

In the case of `CCn1ccc2nc(N3CCN(c4ncc5ccccc5n4)CC3)ncc2c1=O` [Example 96, 2-(4-(5,6-Dihydro-6-ethyl-5-oxopyrido[4,3-d]pyrimidine-2-yl)piperazino)quinazoline], the change in vivo at 1 mg/kg is 3% under setting [1], -2.5% under setting [2], -8% under setting [3] and -6.5% under setting [4]. Under “SHR, oral 1 mg/Kg”, the “Change (%) in heart rate” value was “+2.9%”.
The corresponding values for `CCN(CC)C(=O)c1cnc(N2CCN(c3nc(N)c4cc(OC)c(OC)cc4n3)CC2)nc1OC` [Example 52] are -8%, -13%, -19.5%, -3% and “+3.6%”.
The corresponding values for `CCNC(=O)c1cnc(N2CCN(c3nc(N)c4cc(OC)c(OC)cc4n3)CC2)nc1CC` [Example 38] are -26.6%, -24.1%, -27.6%, -7.9% and “+7.9%”.
For `COc1cc2nc(N3CCN(c4ncc([N+](=O)[O-])cc4[N+](=O)[O-])CC3)nc(N)c2cc1OC` [Example 92], the change in vivo at 10 mg/kg (po, 1 h, read-out: Antihypertensive effects, change (%) in blood pressure, 1 hour later) was 1.4%; the change in vivo at 10 mg/kg (po, 3 h, read-out: Antihypertensive effects, change (%) in blood pressure, 3 hours later) was -3.3%; the change in vivo at 10 mg/kg (po, 6 h, read-out: Antihypertensive effects, change (%) in blood pressure, 6 hours later) is -9.4%; the change in vivo at 10 mg/kg (po, 24 h, read-out: Antihypertensive effects, change (%) in blood pressure, 24 hours later) is -6.1%. Besides, the “Change (%) in heart rate” value (SHR, oral 10 mg/Kg) is on record as “+8.5%”.
With `CCN(CC)C(=O)c1cnc(N2CCN(c3nc(N)c4cc(OC)c(OC)cc4n3)CC2)nc1SC` [Example 53], the change in vivo at 1 mg/kg is -27.9% under setting [1], -31.3% under setting [2], -36.1% under setting [3] and -12% under setting [4]. Also, the “Change (%) in heart rate” value (SHR, oral 1 mg/Kg) is reported as “+25.7%”.
`COc1cc2nc(N3CCN(c4ncc(C(=O)Nc5ccccc5)c(C)n4)CC3)nc(N)c2cc1OC` [Example 43]: the change in vivo at 1 mg/kg under setting [1] was determined as 4.5%, the change in vivo at 1 mg/kg under setting [2] came to 0.5%, the change in vivo at 1 mg/kg under setting [3] was -6.5% and the change in vivo at 1 mg/kg under setting [4] is -9.5%. Moreover, the “Change (%) in heart rate” value (SHR, oral 1 mg/Kg) is “+5.7%”.
Regarding `CCCN(CCC)C(=O)c1cnc(N2CCN(c3nc(N)c4cc(OC)c(OC)cc4n3)CC2)nc1NCC` [Example 80], the change in vivo at 1 mg/kg reads like this: under setting [1], -13.9%; under setting [2], -26%; under setting [3], -33.2%; under setting [4], -10.1%. Further, the “Change (%) in heart rate” value (SHR, oral 1 mg/Kg) is “+12.3%”.
As to `COCCN1Cc2nc(N3CCN(c4nc(N)c5cc(OC)c(OC)cc5n4)CC3)ncc2C1=O` [Example 87], the change in vivo at 1 mg/kg was -15.2% under setting [2], -21.6% under setting [3] and -2.5% under setting [4]. In addition, the “Change (%) in heart rate” value (SHR, oral 1 mg/Kg) was “+17.7%”.
Consider `CCOC(=O)c1cnc(N2CCN(c3nc(N)c4cc(OC)c(OC)cc4n3)CC2)nc1C(=O)OCC` [Example 84], for which the change in vivo at 1 mg/kg was 0.5% under setting [1], 0% under setting [2], -1.5% under setting [3] and -0.5% under setting [4]. Moreover, the “Change (%) in heart rate” value (SHR, oral 1 mg/Kg) is listed as “+2.2%”.
With `CCNc1nc(N2CCN(c3nc(N)c4cc(OC)c(OC)cc4n3)CC2)ncc1C(=O)OC(C)C` [Example 61], the change in vivo at 1 mg/kg is -2.4% under setting [1], -22% under setting [2], -28.2% under setting [3] and -12% under setting [4]. In addition, the “Change (%) in heart rate” value (SHR, oral 1 mg/Kg) is on record as “+12.4%”.
Take `CCNC(=O)c1cnc(N2CCN(c3nc(N)c4cc(OC)c(OC)cc4n3)CC2)nc1N` [Example 64]: the change in vivo at 1 mg/kg is -1.4% under setting [1], -9.6% under setting [2], -13.9% under setting [3] and -1.9% under setting [4]. For the setting “SHR, oral 1 mg/Kg”, the “Change (%) in heart rate” value was “+9.9%”.
`COc1cc2nc(N3CCN(c4ncc(C(=O)NCC(F)(F)F)c(C)n4)CC3)nc(N)c2cc1OC` [Example 48]: the change in vivo at 1 mg/kg by setting is: under setting [1], -4.5%; under setting [2], -9%; under setting [3], -15%; under setting [4], -4%. Also, for the setting “SHR, oral 1 mg/Kg”, the “Change (%) in heart rate” value is on record as “+6.9%”.
The corresponding values for `COc1cc2nc(N3CCN(c4ncc(C(=O)NC5CCCCC5)c(C)n4)CC3)nc(N)c2cc1OC` [Example 45] are -1.5%, -2.5%, -8%, -5.5% and “+4.2%”.
Turning to `COc1cc2nc(N3CCN(c4ncc5c(n4)N(C)CCN(C)C5=O)CC3)nc(N)c2cc1OC` [Example 76], the change in vivo at 1 mg/kg is, setting by setting: under setting [1], 0%; under setting [2], -3.8%; under setting [3], -7.2%; under setting [4], -9.6%. For the same compound, for the setting “SHR, oral 1 mg/Kg”, the “Change (%) in heart rate” value is listed as “+2.9%”.
Taken in the same sequence, the figures for `CCNC(=O)Cc1cnc(N2CCN(c3nc(N)c4cc(OC)c(OC)cc4n3)CC2)nc1NCC` [Example 63] were 3.1%, -4.7%, -9%, -6.6% and “+6.8%”.
Regarding `CCNC(=O)c1cnc(N2CCN(c3nc(N)c4cc(OC)c(OC)cc4n3)CC2)nc1C` [Example 41], the change in vivo at 1 mg/kg under setting [1] is -11.2%, the change in vivo at 1 mg/kg under setting [2] is -19.5%, the change in vivo at 1 mg/kg under setting [3] was -25.9% and the change in vivo at 1 mg/kg under setting [4] is -3.9%. Besides, the “Change (%) in heart rate” value (SHR, oral 1 mg/Kg) was “+9.2%”.
Regarding `CCN(CC)C(=O)c1cnc(N2CCN(c3nc(N)c4cc(OC)c(OC)cc4n3)CC2)nc1N` [Example 65], the change in vivo at 10 mg/kg (SHR, oral 10 mg/Kg, 1 hour, read-out: Antihypertensive effects, change (%) in blood pressure, 1 hour later) is -4.9%; the change in vivo at 10 mg/kg (SHR, oral 10 mg/Kg, 3 hours, read-out: Antihypertensive effects, change (%) in blood pressure, 3 hours later) was -18.4%; the change in vivo at 10 mg/kg (SHR, oral 10 mg/Kg, 6 hours, read-out: Antihypertensive effects, change (%) in blood pressure, 6 hours later) was -21.4%; the change in vivo at 10 mg/kg (SHR, oral 10 mg/Kg, 24 hours, read-out: Antihypertensive effects, change (%) in blood pressure, 24 hours later) was -6.3%. Also, the “Change (%) in heart rate” value (SHR, oral 10 mg/Kg) is “+8.9%”.
`CCOC(=O)c1cnc(N2CCN(c3nc(N)c4cc(OC)c(OC)cc4n3)CC2)nc1NC(C)C` [Example 59]: the change in vivo at 1 mg/kg under setting [1] was -10.1%, the change in vivo at 1 mg/kg under setting [2] is -23.9%, the change in vivo at 1 mg/kg under setting [3] was -30.6% and the change in vivo at 1 mg/kg under setting [4] was -12.4%. The “Change (%) in heart rate” value (SHR, oral 1 mg/Kg) was “+5.7%”.
The corresponding values for `COc1cc2cnc(N3CCN(c4nc(N)c5cc(OC)c(OC)cc5n4)CC3)nc2cc1OC` [Example 71] are 0.5%, -13.4%, -19.1%, -9.6% and “+15.9%”.
Taken in the same sequence, the figures for `COc1cc2nc(N3CCN(c4ncc5c(n4)CN(CCO)C5=O)CC3)nc(N)c2cc1OC` [Example 88] were 0.5%, -4.4%, -6.9%, -2% and “+5.8%”.
The corresponding values for `COc1cc2nc(N3CCN(c4ncc5c(n4)CN(CCc4ccccc4)C5=O)CC3)nc(N)c2cc1OC` [Example 89] are -2.4%, -13.3%, -13.8%, -2.9% and “+5.8%”.
Take `CCn1ccc2nc(N3CCN(c4ncc5cc(OC)c(OC)cc5n4)CC3)ncc2c1=O` [Example 95, 6,7-Dimethoxy-2-(4-(5,6-dihydro-6-ethyl-5-oxopyrido[4,3-d]pyrimidine-2-yl)piperazino)quinazoline]: the change in vivo at 1 mg/kg is, setting by setting: under setting [1], 2.5%; under setting [2], -2.9%; under setting [3], -6.4%; under setting [4], -3.9%. Besides, for the setting “SHR, oral 1 mg/Kg”, the “Change (%) in heart rate” value was “+5.8%”.
Regarding `COc1cc2nc(N3CCN(c4ncc5c(=O)n(Cc6ccccc6)ccc5n4)CC3)nc(N)c2cc1OC` [Example 10], the change in vivo at 1 mg/kg was 1.5% under setting [1], -14.4% under setting [2], -11.9% under setting [3] and -5% under setting [4]. For the same compound, the “Change (%) in heart rate” value (SHR, oral 1 mg/Kg) was “+5.2%”.
The corresponding values for `CNC(=O)c1cnc(N2CCN(c3nc(N)c4cc(OC)c(OC)cc4n3)CC2)nc1NC` [Example 68] are 1.4%, -19.6%, -28.2%, -11.5% and “+5.2%”.
The corresponding values for `COc1cc2nc(N3CCN(c4ncc5c(=O)n(C6CC6)ccc5n4)CC3)nc(N)c2cc1OC` [Example 11] are -0.5%, -16.6%, -17.1%, -6.8% and “+5.7%”.

(Values after patent US4734418A, “Quinazoline compounds and antihypertensives” (priority 1984, dated 1988).)
